# Tests used:
# [1] = system: CD2-Mediated T Cell Activation; assay: T Cell Activation Assay: proliferation of PBMC stimulated with CD2 mabs 35.1 and 9-1; format: cell-based, human; details: soluble, free protein instead of liposomes, data not shown
# Procedure: CD44 Liposomes. Liposomes were prepared by the method of Mimms et al. ((1981) Biochemistry 20:833-840), using 1 μM purified CD44 or control glycophorin protein, 1 nM L-α-dioleoyl lecthin (Avanti Polar Lipids, Birmingham, Ala.), and 240 nM OG. Liposomes were analyzed for content of the appropriate protein using a novel labelling technique and flow cytometry. Liposomes were incubated with 5-(N-octadecanoyl) aminofluorescein (Molecular Probes, Eugene, Oreg.) in PBS×10 min at room temperature. Fluoresceinated liposomes were then reacted with […] magnetic beads (Dynabeads M-450 Goat anti-Mouse IgG, Dynal Inc., Great Neck, N.Y.) coated with CD44 (A3D8) or anti-glycophorin (E3,E4,E5) mAbs. After 45 minutes (4° C.), with continuous end-over-end rotation, beads were washed ×3 in PBS using a magnet to immobilize the beads during PBS changes. Fluoresceinated liposome-bead conjugates were then analyzed by flow cytometry.
# T Cell Activation Assay. PBMC from healthy donors were stimulated with optimal mitogenic concentration of CD2 mabs 35.1 and 9-1 as described (Denning et al.). Where indicated, CD44 or control glycophorin liposomes (final protein range used was 28-140 nM) were added to these cultures 20 min prior to addition of CD2 mabs. […]
# [2] = system: T cell receptor-mediated T cell activation; assay: T cell receptor-mediated T cell activation (anti-CD3ε mab Leu 4) of PBMC, 3H-thymidine, CD44 peptides; format: cell-based, human
# Procedure: Synthetic peptides were prepared by FMoc or TBoc chemistry, purified usin
# HPLC, and resuspended in RPMI media prior to addition to 4 day in vitro
# cultures. Following 4 days in culture, 3Hthymidine was added, and
# following an incubation of 4 hours, the cultures were harvested using an
# automated multiwell harvester using standard techiques.
Substance,effect on CD2 stimulated PBMC culture [1],"effect on T cell activation (in words) ([2]; 1 mg/ml peptide, anti-CD3 triggered PBMC cultures)","% Inhibition ([2]; peptide 1 mg/ml, Leu 4 1:1000, 4 day culture)","Δ CPM 3H-Thymidine/106 Cells in Culture ([2]; peptide 1 mg/ml, Leu 4 1:1000, 4 day culture, control 199,816)"
"soluble, free CD44 protein: CD44 protein affinity-purified on A3D8-Sepharose from HuT 78 T cell lysate, single band at 80-85 kD",Identical results,,,
(C)NRNDVTGGRRDPNHSEGS (CNRNDVTGGRRDPNHSEGS; N-terminal Cys) [CD44-19A],,inhibition of T cell activation,75%,"50,318 Δ CPM 3H-Thymidine/106 Cells"

# From US5863540A, “Adhesion molecule” (Duke University, priority 1993, dated 1999)
